pKd: −log10 of the molar value. In brackets after ≈: the same amount, converted by molar mass. Activity calls are given as the source filed them. No cut-off for these calls is given here.
Columns and labels:
[1] = system: Staphylococcus aureus; experiment: Upregulation of Mnh1 expression in Staphylococcus aureus at 12.5 microg/ml incubated for 3 hrs by RNA sequencing analysis; format: functional; details: dose 12.5 µg/ml
[2] = system: Staphylococcus aureus; experiment: Antibacterial activity against methicillin-resistant Staphylococcus aureus infected in kunming mouse peritonitis model assessed as reduction in bacterial colonies in blood at 5 mg/kg, ip measured upto 8 days; format: functional, organism-based; details: time <= 8.0 day
[3] = system: Staphylococcus aureus; experiment: Antimicrobial activity against Staphylococcus aureus ATCC 25923 incubated for 1 hr in presence of PGN; format: functional
[4] = system: Staphylococcus epidermidis; experiment: Antimicrobial activity against Staphylococcus epidermidis ATCC 12228 assessed as inhibition of visible bacterial growth incubated for 18 hrs by CLSI based analysis; format: functional
[5] = system: Staphylococcus aureus; experiment: Antibacterial activity against methicillin-resistant Staphylococcus aureus infected in kunming mouse peritonitis model assessed as reduction in bacterial colonies in kidney at 5 mg/kg, ip measured upto 8 days; format: functional, organism-based; details: time <= 8.0 day
[6] = Toxicity in mouse assessed as signs of drowsiness at 50 mg/kg, ip measured for 7 days; format: organism-based; details: in vivo, 168 h, time 7 day
[7] = system: Staphylococcus aureus; experiment: Antimicrobial activity against Staphylococcus aureus incubated for 0.5 hrs in presence of Mg+; format: functional, organism-based
[8] = system: Peptidoglycan; experiment: Binding affinity to Staphylococcus aureus peptidoglycan assessed as dissociation constant by ITC analysis
[9] = system: Staphylococcus aureus; experiment: Upregulation of ahpC6 expression in Staphylococcus aureus at 12.5 microg/ml incubated for 3 hrs by RNA sequencing analysis; format: functional; details: dose 12.5 µg/ml
[10] = system: Staphylococcus aureus; experiment: Induction of ROS production in Staphylococcus aureus assessed as increase in fluorescence intensity at 4 times MIC by DCFH-DA probe based assay; format: functional, organism-based
[11] = system: Staphylococcus aureus; experiment: Antimicrobial activity against Staphylococcus aureus incubated for 0.5 hrs in presence of Fe2+; format: functional, organism-based
[12] = system: Enterococcus faecium; experiment: Antimicrobial activity against vancomycin-resistant Enterococcus faecium assessed as inhibition of visible bacterial growth incubated for 18 hrs by CLSI based analysis; format: functional
[13] = system: Cell membrane; experiment: Disruption of cell membrane integrity in Staphylococcus aureus at 4 times of MIC incubated upto 20 mins by fluorescence microscopic analysis; format: subcellular
[14] = system: Bacillus subtilis; experiment: Antimicrobial activity against Bacillus subtilis ATCC 23875 assessed as inhibition of visible bacterial growth incubated for 18 hrs by CLSI based analysis; format: functional
[15] = system: Staphylococcus aureus; experiment: Antimicrobial activity against Staphylococcus aureus ATCC 25923 incubated for 1 hr in presence of PG; format: functional
[16] = system: Staphylococcus aureus; experiment: Antimicrobial activity against Staphylococcus aureus incubated for 0.5 hrs in presence of NA+; format: functional, organism-based
[17] = system: Staphylococcus aureus; experiment: Antibiofilm activity in Staphylococcus aureus assessed as biofilm eradication at 4 times MIC relative to control; format: functional
[18] = system: Staphylococcus aureus; experiment: Upregulation of thiol peroxidase expression in Staphylococcus aureus at 12.5 microg/ml incubated for 3 hrs by RNA sequencing analysis; format: functional, organism-based; details: dose 12.5 µg/ml
[19] = system: Staphylococcus aureus; experiment: Antimicrobial activity against Staphylococcus aureus assessed as reduction in bacterial growth at 2 times MIC incubated for 2 hrs by time-killing assay; format: functional; design: scale not given: the % may be the effect or the level left
[20] = system: Staphylococcus aureus; experiment: Antibacterial activity against methicillin-resistant Staphylococcus aureus infected in kunming mouse peritonitis model assessed as reduction in bacterial colonies in lung at 5 mg/kg, ip measured upto 8 days; format: functional, organism-based; details: time <= 8.0 day
[21] = system: Candida albicans; experiment: Antifungal activity against Candida albicans assessed as reduction in fungal growth incubated for 18 hrs by CLSI based analysis; format: functional
[22] = system: Escherichia coli; experiment: Antimicrobial activity against Escherichia coli assessed as inhibition of visible bacterial growth incubated for 18 hrs by CLSI based analysis; format: functional
[23] = Toxicity in mouse assessed as organ damage by measuring thickened alveolar wall in lungs at 5 mg/kg, ip measured upto 8 days; format: organism-based; details: in vivo, 192 h, time < 8 day
[24] = system: Peptidoglycan; experiment: Binding affinity to Staphylococcus aureus peptidoglycan assessed as change in enthalpy by ITC analysis
[25] = system: Cell membrane; experiment: Induction of cell membrane depolarization in Staphylococcus aureus assessed as increase in fluorescence intensity at 1 to 8 times MIC by DiOC2 (3) dye based assay; format: subcellular
[26] = Toxicity in mouse assessed as change in bowel movement intake at 50 mg/kg, ip measured for 7 days; format: organism-based; details: in vivo, 168 h, time 7 day
[27] = system: Staphylococcus aureus; experiment: Antibacterial activity against methicillin-resistant Staphylococcus aureus infected in kunming mouse peritonitis model assessed as reduction in bacterial colonies in spleen at 5 mg/kg, ip measured upto 8 days; format: functional, organism-based; details: time <= 8.0 day
[28] = system: Staphylococcus aureus; experiment: Antimicrobial activity against Staphylococcus aureus ATCC 25923 incubated for 1 hr in presence of PE; format: functional
[29] = system: Staphylococcus aureus; experiment: Antimicrobial activity against Staphylococcus aureus incubated for 0.5 hrs in presence of K+; format: functional, organism-based
[30] = system: Staphylococcus aureus; experiment: Upregulation of TarF expression in Staphylococcus aureus at 12.5 microg/ml incubated for 3 hrs by RNA sequencing analysis; format: functional; details: dose 12.5 µg/ml
[31] = system: Staphylococcus aureus; experiment: Antimicrobial activity against methicillin-resistant Staphylococcus aureus ATCC 43300 assessed as inhibition of visible bacterial growth incubated for 18 hrs by CLSI based analysis; format: functional
[32] = system: Staphylococcus aureus; experiment: Upregulation of catalase expression in Staphylococcus aureus at 12.5 microg/ml incubated for 3 hrs by RNA sequencing analysis; format: functional, organism-based; details: dose 12.5 µg/ml
[33] = Toxicity in mouse assessed as change in water intake at 50 mg/kg, ip measured for 7 days; format: organism-based; details: in vivo, 168 h, time 7 day

SMILES: CC(C)[C@@H]1NC(=O)[C@@H](C(C)C)NC(=O)[C@H](C(C)C)NC(=O)[C@@H](CCCCN)NC(=O)[C@H](Cc2c(C(c3ccccc3)(c3ccccc3)c3ccccc3)[nH]c3ccccc23)NC(=O)[C@@H](C(C)C)NC(=O)[C@@H]2CSC1N2
- Activity [1]: Active
- Activity [2]: Active
- MIC [3]: > 50 µg/mL
- MIC [4]: 6.25 µg/mL (≈ 6.01 µM)
- Activity [5]: Active
- Activity [6]: Non-toxic
- Activity [7]: Active
- pKd [8]: 6.21
- Activity [9]: Active
- Activity [10]: Active
- Activity [11]: Active
- MIC [12]: 12.5 µg/mL (≈ 12 µM)
- Activity [13]: Active
- MIC [14]: 6.25 µg/mL (≈ 6.01 µM)
- MIC [15]: > 50 µg/mL
- Activity [16]: Active
- Activity [17]: 40%
- Activity [18]: Active
- Activity [19]: >99%
- Activity [20]: Active
- MIC [21]: 3.13 µg/mL (≈ 3.01 µM)
- MIC [22]: 3.13 µg/mL (≈ 3.01 µM)
- Activity [23]: Non-toxic
- deltaH [24]: 0.925 kcal/mol
- Activity [25]: Dose-dependent-effect
- Activity [26]: Non-toxic
- Activity [27]: Active
- MIC [28]: > 50 µg/mL
- Activity [29]: Active
- Activity [30]: Active
- MIC [31]: 6.25 µg/mL (≈ 6.01 µM)
- Activity [32]: Active
- Activity [33]: Non-toxic
